Assay [1] deals with T1, Carboxy-terminal domain RNA polymerase II polypeptide A small phosphatase 1 (Homo sapiens, UniProt Q9GZU7).
T1 sequence (Q9GZU7 whole entry): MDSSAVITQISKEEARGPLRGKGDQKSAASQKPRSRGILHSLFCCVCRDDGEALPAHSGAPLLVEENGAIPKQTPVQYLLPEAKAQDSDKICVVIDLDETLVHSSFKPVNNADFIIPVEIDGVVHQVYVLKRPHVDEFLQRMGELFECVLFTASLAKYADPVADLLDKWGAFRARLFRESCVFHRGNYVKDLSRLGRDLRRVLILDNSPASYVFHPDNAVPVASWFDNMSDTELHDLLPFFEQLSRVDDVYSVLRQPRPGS
Kind of assay: inhibitors of CTDSP1, concentration-response testing, biochemical assay, absorbance-based, actives from ultra-high-throughput screening (AID 540297). The assay is classed as functional.

Assay [2] is described as follows: cells. The assay is classed as functional.
Assay [3] is described as follows: Vero E6 cell cytotoxicity, dose response, cytotoxicity control for non-replicating M. tuberculosis project, secondary assay (AID 492998). The format is functional, VeroE6. To be noted: Vero C1008.
Assay [4] in a line: THP-1 cell cytotoxicity, dose response, cytotoxicity control for non-replicating M. tuberculosis project (AID 489025). The format is functional.
For assay [5], the target named is Dual specificity tyrosine-phosphorylation-regulated kinase 1A (Rattus norvegicus, UniProt Q63470). The assay is classed as biochemical, Homo sapiens.
In assay [6] the target is T2, Short transient receptor potential channel 4 (Mus musculus, UniProt Q9QUQ5).
T2 sequence (Q9QUQ5 whole entry): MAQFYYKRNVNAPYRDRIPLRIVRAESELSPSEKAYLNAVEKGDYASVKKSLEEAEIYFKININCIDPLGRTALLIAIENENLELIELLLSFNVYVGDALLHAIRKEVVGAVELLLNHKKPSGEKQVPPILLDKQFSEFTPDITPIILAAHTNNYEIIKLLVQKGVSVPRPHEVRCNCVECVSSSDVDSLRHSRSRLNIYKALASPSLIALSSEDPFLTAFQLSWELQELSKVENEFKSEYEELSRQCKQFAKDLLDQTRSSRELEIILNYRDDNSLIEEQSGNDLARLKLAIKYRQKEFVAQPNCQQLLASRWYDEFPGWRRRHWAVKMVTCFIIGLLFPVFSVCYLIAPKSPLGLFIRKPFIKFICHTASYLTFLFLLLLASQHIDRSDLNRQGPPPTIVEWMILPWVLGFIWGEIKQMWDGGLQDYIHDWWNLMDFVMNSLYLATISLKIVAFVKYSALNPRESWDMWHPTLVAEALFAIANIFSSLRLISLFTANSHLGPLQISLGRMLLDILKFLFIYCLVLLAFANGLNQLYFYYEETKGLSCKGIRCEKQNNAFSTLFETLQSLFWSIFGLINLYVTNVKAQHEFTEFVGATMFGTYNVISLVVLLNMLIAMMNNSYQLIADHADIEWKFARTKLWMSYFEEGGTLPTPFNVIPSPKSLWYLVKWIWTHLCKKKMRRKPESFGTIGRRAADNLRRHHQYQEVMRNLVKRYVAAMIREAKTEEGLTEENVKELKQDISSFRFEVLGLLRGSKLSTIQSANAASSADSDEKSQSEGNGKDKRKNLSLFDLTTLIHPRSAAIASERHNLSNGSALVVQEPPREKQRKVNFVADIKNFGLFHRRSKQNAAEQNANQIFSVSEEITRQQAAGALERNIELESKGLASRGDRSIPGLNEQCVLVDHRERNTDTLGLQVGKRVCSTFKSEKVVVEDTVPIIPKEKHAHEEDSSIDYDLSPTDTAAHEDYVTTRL
Kind of assay: mouse TRPC4 channel inhibitors, dose response, cell-based, HEK293 TRPC4/mu-opioid, Fluo-4 calcium (AID 434942).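 Also: potency of inhibitors blocking the TRPC4 calcium response.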 The format is functional.

Assay [7] concerns the target DNA dC->dU-editing enzyme APOBEC-3A (Homo sapiens, UniProt P31941). Kind of assay: Dose Response confirmation of small molecule APOBEC3A DNA Deaminase Inhibitors via a fluorescence-based single-stranded DNA deaminase assay. [Related pubchem assays (depositor defined):AID493011, AID493024]. The assay is classed as functional.
Assay [8] concerns the target DNA dC->dU-editing enzyme APOBEC-3G (Homo sapiens, UniProt Q9HC16). The assay is classed as functional.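 Also: Dose-response counterscreen measuring inhibition of APOBEC3G DNA deaminase activity, run while confirming APOBEC3A inhibitors.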
Assay [9] is described as follows: cells. The format is functional, cell-based.
Another assay has as its target Nonstructural protein 1 (Influenza A virus, UniProt Q194T2). The assay is classed as functional, Influenza A virus (A/California/07/2009(H1N1)).
The target of a further assay is T3, Protein skinhead-1 (Caenorhabditis elegans, UniProt P34707).
T3 sequence (P34707 whole entry): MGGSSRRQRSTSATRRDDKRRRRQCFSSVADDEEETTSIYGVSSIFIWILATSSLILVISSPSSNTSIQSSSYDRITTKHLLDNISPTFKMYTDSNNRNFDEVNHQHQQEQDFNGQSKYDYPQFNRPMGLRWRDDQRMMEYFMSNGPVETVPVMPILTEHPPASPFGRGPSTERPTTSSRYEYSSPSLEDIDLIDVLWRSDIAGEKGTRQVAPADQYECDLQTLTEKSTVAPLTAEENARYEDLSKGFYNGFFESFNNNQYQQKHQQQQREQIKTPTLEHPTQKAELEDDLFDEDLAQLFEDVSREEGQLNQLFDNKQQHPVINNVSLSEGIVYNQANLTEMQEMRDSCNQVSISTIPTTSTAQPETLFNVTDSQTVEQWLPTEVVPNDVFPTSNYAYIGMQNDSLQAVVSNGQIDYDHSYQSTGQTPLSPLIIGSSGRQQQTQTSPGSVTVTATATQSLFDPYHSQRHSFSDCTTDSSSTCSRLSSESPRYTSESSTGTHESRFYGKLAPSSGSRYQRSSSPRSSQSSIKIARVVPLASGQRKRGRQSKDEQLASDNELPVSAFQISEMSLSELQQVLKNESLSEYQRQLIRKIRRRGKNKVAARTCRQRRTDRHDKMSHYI
The format is functional.

Assay [10] can be described thus: Luminescence Cell-Based Dose Retest to Confirm Inhibitors of Cancer Stem Cells. [Related pubchem assays (depositor defined):AID2717, AID2721]. To be noted: Homo sapiens. The assay is classed as functional.
A short description of assay [11]: cytotoxicity in HEK-293T cells, dose response, cytotoxicity control for TCR NF-kB inhibitor project, luminescence, T-cell screen hits (AID 489026).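 Also: cells exposed to compound about 14 hours before the viability readout.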 The format is functional, cell-based.
Assay [12] is described as follows: cytotoxicity toward NIH3T3 fibroblasts, dose response, counter-screen, cell-based, ATP luminescence, mouse fibroblasts (AID 2010).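 Also: cells exposed to compound for about 90 hours before reading.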 The assay is classed as functional. On the technique in general: Counterscreens check selectivity or assay interference.
A short description of assay [13]: inhibitors of intracellular T. cruzi replication, confirmation, NIH3T3 host cells, beta-gal luminescence (AID 2044).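 Also: intracellular parasites grown in NIH/3T3 mouse fibroblasts as host cells; luminescent beta-galactosidase reporter signal from transgenic T. cruzi replicating inside host cells; inhibitors lower the luminescence signal.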 The format is functional, cell-based.
The nature of assay [14]: A cytotoxicity screen of small molecule inhibitors of the PhoP region in Salmonella typhi identified in the primary screen. [Related pubchem assays: 1850, 1864, 1985 ]. The assay is classed as functional.
The target of assay [15] is T4, Heat shock factor protein 1 (Mus musculus, UniProt P38532).
T4 sequence (P38532 whole entry): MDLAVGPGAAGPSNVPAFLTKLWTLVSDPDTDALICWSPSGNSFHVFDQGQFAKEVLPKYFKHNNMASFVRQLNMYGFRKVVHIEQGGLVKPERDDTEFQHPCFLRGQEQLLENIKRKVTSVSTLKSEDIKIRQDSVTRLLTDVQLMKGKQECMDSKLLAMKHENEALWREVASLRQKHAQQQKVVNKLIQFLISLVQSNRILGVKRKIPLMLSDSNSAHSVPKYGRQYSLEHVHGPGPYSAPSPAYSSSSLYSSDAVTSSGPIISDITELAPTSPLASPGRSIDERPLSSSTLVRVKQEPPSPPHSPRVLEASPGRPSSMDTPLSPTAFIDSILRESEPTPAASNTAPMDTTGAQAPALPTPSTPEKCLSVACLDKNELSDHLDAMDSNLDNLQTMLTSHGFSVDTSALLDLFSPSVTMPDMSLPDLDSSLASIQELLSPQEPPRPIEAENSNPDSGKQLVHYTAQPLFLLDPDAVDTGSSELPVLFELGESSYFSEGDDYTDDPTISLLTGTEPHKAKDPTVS
Kind of assay: inhibition of MG132-induced HSE-luciferase signal, confirmation, cell-based, NIH3T3, luminescence, dose retest (AID 2382).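 Also: NIH3T3 fibroblasts with HSF1-driven luciferase reporter stressed by proteasome inhibitor MG132; luminescence from HSF1-driven luciferase expression after 8 hours of MG132 stress.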 The format is functional.

A short description of assay [16]: control 3'UTR Renilla luciferase suppression, dose response, counter-screen for Shn3 inhibitor project, cell-based, Clone20-Shn3RL, cherry-picked (AID 624133). The format is functional.
The nature of assay [17]: Shn3 3'UTR reporter inhibitors, dose response, cell-based, Clone20 osteoblasts, firefly luciferase, cherry-picked (AID 624132).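 Also: firefly luciferase luminescence from reporter carrying the Shn3 3'UTR in osteoblasts.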 The assay is classed as functional.
Assay [18] addresses Heat shock protein HSP 90-alpha (Homo sapiens, UniProt P07900). The format is functional, organism-based.

The source made the active and inactive calls.

What is called IC50 is the concentration needed to halve the response being measured. A word on the CC50: it is the concentration at which the toxic effect on the cells reaches its halfway point. For orientation: AC50 means the concentration giving half of the maximal activity seen. The term EC50 denotes the midpoint of the concentration-response curve.

Nonstructural protein 1, sequence (Q194T2 whole entry): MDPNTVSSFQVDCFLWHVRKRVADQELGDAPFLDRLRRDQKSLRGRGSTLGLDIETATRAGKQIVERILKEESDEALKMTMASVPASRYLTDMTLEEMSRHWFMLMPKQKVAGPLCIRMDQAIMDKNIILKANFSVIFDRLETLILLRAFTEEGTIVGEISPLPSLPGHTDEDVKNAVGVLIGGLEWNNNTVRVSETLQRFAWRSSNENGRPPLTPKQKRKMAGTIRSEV
DNA dC->dU-editing enzyme APOBEC-3A, sequence (P31941 whole entry): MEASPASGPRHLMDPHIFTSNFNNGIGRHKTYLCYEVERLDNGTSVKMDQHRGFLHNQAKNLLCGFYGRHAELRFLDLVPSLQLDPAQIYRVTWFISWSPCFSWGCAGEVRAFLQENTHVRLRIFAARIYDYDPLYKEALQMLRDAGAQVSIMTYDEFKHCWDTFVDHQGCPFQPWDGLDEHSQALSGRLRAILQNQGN
DNA dC->dU-editing enzyme APOBEC-3G, sequence (Q9HC16 whole entry): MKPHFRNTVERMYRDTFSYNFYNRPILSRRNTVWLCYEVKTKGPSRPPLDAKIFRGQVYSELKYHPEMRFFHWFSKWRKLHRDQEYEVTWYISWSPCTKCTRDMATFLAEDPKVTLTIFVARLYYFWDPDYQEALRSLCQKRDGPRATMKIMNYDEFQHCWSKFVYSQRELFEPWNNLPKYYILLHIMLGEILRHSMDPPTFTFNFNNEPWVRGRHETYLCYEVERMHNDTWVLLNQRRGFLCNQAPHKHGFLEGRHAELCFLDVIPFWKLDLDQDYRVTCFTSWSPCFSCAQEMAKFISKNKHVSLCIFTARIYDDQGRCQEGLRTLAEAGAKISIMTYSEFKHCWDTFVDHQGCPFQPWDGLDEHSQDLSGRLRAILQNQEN

Take `Cc1ccc(-c2cc(C(=O)N/N=C/c3ccc(Cl)cc3)[nH]n2)o1`: the IC50 in assay [1] was 9.23 µM (active).
Regarding `Cc1nc([N+](=O)[O-])c(Br)n1CC(=O)c1ccc(Cl)cc1`, the IC50 in “cells [2]” was 6.88 µM (active). Moreover, the values for the CC50 in assay [3] and in assay [4] were 13 µM (active) and 17.4 µM (active), respectively.
For `CCOc1cc(/C=C2\SC(N3CCCCC3)=NC2=O)ccc1O`, the AC50 in assay [5] is 0.678 µM (active).
On to `COc1ccc(CN2CCN(Cc3ccc(C(F)(F)F)cc3)CC2)c(OC)c1`, for which the EC50 in [6] is 2.66 µM (active).
In the case of `CCN(CC)CC(=O)Nc1ccc(Cl)cc1C(=O)c1ccccc1`, the EC50 in [6] is 2.37 µM (active).
With `CC(=O)OC1C2CCC1C([N+]1(C)CCCCC1)CC2` (configuration not stated), the IC50 is 2.69 µM (active) in assay [7], 3.15 µM (active) in [8] and 4.51 µM (active) in [1].
For `O=c1oc2cc([N+](=O)[O-])ccc2nc1/C=C(\O)c1cccc(Br)c1`, the EC50 in the assay “cells [9]” is listed as > 350 µM (not active).
For the molecule `O=C(NCCN1CCOCC1)c1cc2sccc2n1Cc1ccc(Cl)cc1`, the IC50 at Nonstructural protein 1 was > 100 µM (active).
For `COc1ccccc1N(C(=O)c1snc(C(N)=O)c1N)C(C(=O)NC1CCCC1)c1ccc2ncccc2c1` (configuration not stated), the EC50 in [6] is 2.66 µM (active).
On the same count and under the same terms, the same measure for `CCC1CCCCN1Cc1nc2c(c(=O)n(C)c(=O)n2C)n1Cc1ccccc1` (configuration not stated): 3.76 µM (active).
As for `CCc1noc(C)c1C(=O)NNC(=O)c1cc(OC)c(OC)c(OC)c1`, the results for the IC50 in assay [7] and in assay [8] were 21.3 µM (active) and 13.9 µM (active), respectively.
Consider `O=C(NCCc1ccccc1)c1cc2ncc(Br)cn2n1`, for which the IC50 in assay [7] is 12.8 µM (active); in assay [8], > 100 µM (inactive).
Take `Cc1c(N/N=C2/C(=O)NC(=O)N(Cc3ccccc3)C2=O)c(=O)n(-c2ccccc2)n1C`: on Nonstructural protein 1, the IC50 is 3.31 µM (active).
Consider `O=C(Nc1ccc(Br)cc1Cl)c1cnccn1`, for which the IC50 on Protein skinhead-1 is > 100 µM (inactive); in assay [1], 4.67 µM (active).
Turning to `CN(C)CCCN(Cc1cc2cc3c(cc2nc1O)OCO3)C(S)=NCc1ccco1`, in assay [6], the EC50 is 0.421 µM (active).
For `CCSCc1nnc(SCC(=O)Nc2ccc(OC)cc2)n1C`, the IC50 in [7] is 3.08 µM (active); in assay [8] it was 4.91 µM (active).
With `CCCCN(C(=O)Cn1ncc(Cl)c(Cl)c1=O)c1c(N)n(CC(C)C)c(=O)[nH]c1=O`, the IC50 in assay [1] was 5.74 µM (active).
Regarding `O=C(N/N=C/c1cc([N+](=O)[O-])ccc1O)C1CCCCC1`, the IC50 in “cells [2]” was 17.9 µM (active). Besides, the results for the CC50 in assay [3] and in assay [4] were > 20 µM (active) and 21.4 µM (active), respectively.
On to `COc1ccc(N(C(=O)c2ccccc2C)S(=O)(=O)c2cccs2)cc1`, for which the AC50 in assay [10] was 0.17 µM (active). Besides, the IC50 in [11] was > 80 µM (inactive).
`O=C(Nc1cccc2nsnc12)c1ccc2c(c1)OCO2`: the AC50 in assay [5] is 11.7 µM (active).
With `COc1cc(Nc2ccc(C)cc2)c([N+](=O)[O-])nc1[N+](=O)[O-]`, the EC50 in assay [12] is > 60 µM (not active); in assay [13], 3.02 µM (active). Also, in assay [10], the AC50 is 3.51 µM (active). In [11], the IC50 was > 80 µM (inactive).
For the molecule `Cc1nc2scc(C)n2c(=O)c1S(=O)(=O)N1CCN(c2cccc(C(F)(F)F)c2)CC1`, the EC50 is > 50 µM (active) in assay [14] and > 195 µM (not active) in [15].
For `N=C(Nc1nc(-c2ccccn2)cc2ccccc12)c1ccccn1`, the figures for the AC50 in [16], in [17] and in assay [18] were < 0.26 µM (active), < 0.26 µM (active) and 2.76 µM (active), respectively. On Nonstructural protein 1, the IC50 is 39.6 µM (active).
For `CC(=O)Nc1cccc(-c2cnc3ccccc3n2)c1`, the AC50 in [5] was 6.1 µM (active).
Regarding `Oc1ccc2ccc3[nH]cnc3c2c1`, in assay [5], the AC50 was 2.47 µM (active).
Turning to `O=[N+]([O-])c1ccccc1/C=C/C=N/Nc1nc(N2CCCCC2)nc(N2CCCCC2)n1`, the concentration for half-maximal inhibition (IC50) is 1.14 µM (active) in assay [7] and 0.814 µM (active) in assay [8].
On the same counts, the results for `CCN1CCN(c2ccc(S(=O)(=O)N3CCCCC3)cc2NC(=O)/C=C/c2ccc(F)cc2)CC1` are 4.6 µM (active) and 7.23 µM (active).

These data come from ChEMBL document CHEMBL1201862, “PubChem BioAssay data set” (2004).
